Assay results: patent US20250092017A1, “2-PIPERIDYL OR 2-PYRAZOLYL SUBSTITUTED PYRIMIDINE COMPOUND SERVING AS EGFR INHIBITOR” (SUZHOU PUHE BIOPHARMA CO., LTD., priority 2022, published 2025)
Where two headings read alike, the source gives them in different places.

Tests used:
[1] = Liver microsome stability test, mouse; type: in vitro ADME; details: mouse liver microsomes 0.5 mg/ml, compound 1 μM, NADPH 1 mM, within 60 minutes
Experimental: (§1) The compounds of the present disclosure were subjected to a liver microsome stability test. The compounds to be tested were co-incubated with liver microsomes of different species with or without the addition of NADPH. The final concentration of the compounds to be tested in the test system was 1 μM. The final concentration of NADPH was 1 mM, and the final concentration of liver microsomes was 0.5 mg/ml.

EGFR (L858R) = EGFR (L858R) (Homo sapiens, UniProt P00533, L858R); test: MSA (Mobility Shift Assay) kinase activity, EGFR-L858R; type: biochemical
Experimental: (§2) The MSA (Mobility Shift Assay) method was used to detect the effects of small molecule inhibitors on the kinase activity of EGFR wild type and its mutants (EGFR^wt, EGFR-L858R, EGFR-L858R-T790M-C797S, EGFR-L858R-C797S).
(§3) 10 μL of kinase solution at 2.5 times the final concentration was added to the compound wells and positive control Max wells; 10 μL of 1x kinase buffer was added to the negative control Min wells. The mixture was centrifuged at 1000 rpm for 30 seconds, and the reaction plate was shaken to mix the solution well and then incubated at room temperature for 10 minutes. A mixed solution of ATP and kinase substrate at 5/3 times the final concentration was prepared in 1x kinase buffer. 15 μL of a mixed solution of ATP and substrate at 5/3 times the final concentration was added to initiate the reaction. The 384-well plate was centrifuged at 1000 rpm for 30 seconds, and shaken to mix the solution well and then incubated at room temperature for the corresponding time. 30 μL of stop detection solution was added to stop the kinase reaction, and the mixture was centrifuged at 1000 rpm for 30 seconds, and then to mixed well by shaking. The conversion rate was read using Caliper EZ Reader.
(§4) wherein: Conversion %_sample is the conversion rate reading of the sample; Conversion %_min is the mean of the negative control wells, representing the conversion rate reading of the wells without enzyme activity; Conversion %_max is the mean of the positive control wells, representing the conversion rate reading of the wells without compound inhibition.
(§5) The log (inhibitor) vs. response —Variable slope of the analysis software GraphPad Prism 5 was used to fit the dose-effect curve, where the log value of the concentration was used as the X-axis and the percentage inhibition rate was used as the Y-axis, to obtain the IC50 value of each compound on the enzyme activity.
(§6) The calculation formula is Y=Bottom+(Top-Bottom)/(1+10^((Log IC50−X)*Hill Slope))

[2] = biological target: T1, Ba/F3-TEL-EGFR-L858R-C797S (Homo sapiens, UniProt P00533, C797S/L858R, cells depend on it); test: CellTiter-Glo proliferation, Ba/F3-TEL-EGFR-L858R-C797S; type: cell-based; details: 72 hours, read-out: Ba/F3-TEL-EGFR-L858R-C797S IC50/nM
T1 construct: fused on or other part: N-terminal TEL (ETV6) oligomerising part fused to the EGFR intracellular/kinase part; P41212 (Transcription factor ETV6)
Procedure, shortened: (§7)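 Ba/F3 lines dependent on the indicated EGFR variants were treated with compounds at a final DMSO concentration of 0.1% at 37 °C, 5% CO2. Viability was read by CellTiter-Glo luminescence, and inhibition rate was normalised to DMSO-treated cells (max) and medium-only wells (min). IC50 came from inhibition curves.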

Ba/F3-FL-EGFR-L858R = Ba/F3-FL-EGFR-L858R (Homo sapiens, UniProt P00533, L858R, cells depend on it); test: CellTiter-Glo proliferation, Ba/F3-FL-EGFR-L858R; type: cell-based; details: 72 hours, read-out: Ba/F3-FL-EGFR-L858R IC50/nM
Procedure, shortened: as §7

EGFR (L858R/C797S) = EGFR (L858R/C797S) (Homo sapiens, UniProt P00533, C797S/L858R); test: MSA (Mobility Shift Assay) kinase activity, EGFR-L858R-C797S; type: biochemical
Experimental: as §2, §3, §4, §5, §6

[3] = test system: Ba/F3-FL-EGFR-del19-C797S; test: CellTiter-Glo proliferation, Ba/F3-FL-EGFR-del19-C797S; type: cell-based; details: proliferation, 72 hours, CellTiter-Glo, read-out: Ba/F3-FL-EGFR-del19-C797S IC50/nM
Procedure, shortened: as §7

EGFR (wild-type) = EGFR (wild-type) (Homo sapiens, UniProt P00533); test: MSA (Mobility Shift Assay) kinase activity, EGFR wild type; type: biochemical; details: read-out: EGFR wt/ IC50/nM
Experimental: as §2, §3, §4, §5, §6

[4] = Liver microsome stability test, human; type: in vitro ADME; details: human liver microsomes 0.5 mg/ml, compound 1 μM, NADPH 1 mM, within 60 minutes
Experimental: as §1

EGFR (L858R/T790M/C797S) = EGFR (L858R/T790M/C797S) (Homo sapiens, UniProt P00533, C797S/L858R/T790M); test: MSA (Mobility Shift Assay) kinase activity, EGFR-L858R-T790M-C797S; type: biochemical
Experimental: as §2, §3, §4, §5, §6

Ba/F3-FL-EGFR = biological target: T2, Ba/F3-FL-EGFR (Homo sapiens, UniProt P00533); test: CellTiter-Glo proliferation, Ba/F3-FL-EGFR; type: cell-based; details: 72 hours, read-out: Ba/F3-FL-EGFR IC50/nM
T2 construct: FL read as full length
Procedure, shortened: as §7

[5] = biological target: Ba/F3-FL-EGFR-L858R-T790M-C797S (Homo sapiens, UniProt P00533, T790M/C797S/L858R, cells depend on it); test: CellTiter-Glo proliferation, Ba/F3-FL-EGFR-L858R-T790M-C797S; type: cell-based; details: 72 hours, read-out: Ba/F3-FL-EGFR-L858R-T790M-C797S IC50/nM
Procedure, shortened: as §7

T1 sequence (P00533 whole entry C797S/L858R, the tested form may be a part): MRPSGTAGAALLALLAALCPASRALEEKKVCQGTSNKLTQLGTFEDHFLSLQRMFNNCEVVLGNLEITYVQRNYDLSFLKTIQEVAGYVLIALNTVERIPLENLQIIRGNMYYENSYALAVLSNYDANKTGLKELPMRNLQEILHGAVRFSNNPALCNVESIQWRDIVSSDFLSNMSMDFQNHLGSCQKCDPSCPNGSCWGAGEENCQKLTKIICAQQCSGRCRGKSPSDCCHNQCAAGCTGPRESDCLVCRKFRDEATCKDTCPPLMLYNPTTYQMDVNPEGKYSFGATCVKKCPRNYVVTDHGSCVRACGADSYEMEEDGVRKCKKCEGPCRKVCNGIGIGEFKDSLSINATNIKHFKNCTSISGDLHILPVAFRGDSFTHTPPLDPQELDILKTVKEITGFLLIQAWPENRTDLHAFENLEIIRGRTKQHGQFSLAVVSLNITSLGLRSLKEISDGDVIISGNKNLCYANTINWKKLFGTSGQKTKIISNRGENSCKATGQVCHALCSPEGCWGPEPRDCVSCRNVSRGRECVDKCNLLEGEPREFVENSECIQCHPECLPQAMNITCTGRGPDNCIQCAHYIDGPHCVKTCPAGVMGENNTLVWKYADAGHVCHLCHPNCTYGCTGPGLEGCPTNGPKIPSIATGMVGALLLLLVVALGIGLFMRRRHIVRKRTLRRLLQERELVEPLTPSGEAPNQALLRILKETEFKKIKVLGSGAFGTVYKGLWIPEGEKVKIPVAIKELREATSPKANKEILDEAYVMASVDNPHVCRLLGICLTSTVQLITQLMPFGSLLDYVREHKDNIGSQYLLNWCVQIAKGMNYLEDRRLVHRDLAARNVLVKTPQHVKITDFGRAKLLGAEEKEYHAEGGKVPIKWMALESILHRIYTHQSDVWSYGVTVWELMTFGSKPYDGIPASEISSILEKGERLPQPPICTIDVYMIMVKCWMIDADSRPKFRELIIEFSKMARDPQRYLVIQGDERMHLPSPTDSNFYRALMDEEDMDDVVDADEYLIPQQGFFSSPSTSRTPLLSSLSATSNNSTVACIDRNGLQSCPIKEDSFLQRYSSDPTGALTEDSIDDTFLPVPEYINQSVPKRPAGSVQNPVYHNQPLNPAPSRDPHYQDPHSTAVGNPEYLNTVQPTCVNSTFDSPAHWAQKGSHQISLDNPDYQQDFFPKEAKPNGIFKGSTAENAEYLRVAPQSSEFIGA
EGFR (L858R/T790M/C797S), sequence (P00533 25-1210 T790M/C797S/L858R): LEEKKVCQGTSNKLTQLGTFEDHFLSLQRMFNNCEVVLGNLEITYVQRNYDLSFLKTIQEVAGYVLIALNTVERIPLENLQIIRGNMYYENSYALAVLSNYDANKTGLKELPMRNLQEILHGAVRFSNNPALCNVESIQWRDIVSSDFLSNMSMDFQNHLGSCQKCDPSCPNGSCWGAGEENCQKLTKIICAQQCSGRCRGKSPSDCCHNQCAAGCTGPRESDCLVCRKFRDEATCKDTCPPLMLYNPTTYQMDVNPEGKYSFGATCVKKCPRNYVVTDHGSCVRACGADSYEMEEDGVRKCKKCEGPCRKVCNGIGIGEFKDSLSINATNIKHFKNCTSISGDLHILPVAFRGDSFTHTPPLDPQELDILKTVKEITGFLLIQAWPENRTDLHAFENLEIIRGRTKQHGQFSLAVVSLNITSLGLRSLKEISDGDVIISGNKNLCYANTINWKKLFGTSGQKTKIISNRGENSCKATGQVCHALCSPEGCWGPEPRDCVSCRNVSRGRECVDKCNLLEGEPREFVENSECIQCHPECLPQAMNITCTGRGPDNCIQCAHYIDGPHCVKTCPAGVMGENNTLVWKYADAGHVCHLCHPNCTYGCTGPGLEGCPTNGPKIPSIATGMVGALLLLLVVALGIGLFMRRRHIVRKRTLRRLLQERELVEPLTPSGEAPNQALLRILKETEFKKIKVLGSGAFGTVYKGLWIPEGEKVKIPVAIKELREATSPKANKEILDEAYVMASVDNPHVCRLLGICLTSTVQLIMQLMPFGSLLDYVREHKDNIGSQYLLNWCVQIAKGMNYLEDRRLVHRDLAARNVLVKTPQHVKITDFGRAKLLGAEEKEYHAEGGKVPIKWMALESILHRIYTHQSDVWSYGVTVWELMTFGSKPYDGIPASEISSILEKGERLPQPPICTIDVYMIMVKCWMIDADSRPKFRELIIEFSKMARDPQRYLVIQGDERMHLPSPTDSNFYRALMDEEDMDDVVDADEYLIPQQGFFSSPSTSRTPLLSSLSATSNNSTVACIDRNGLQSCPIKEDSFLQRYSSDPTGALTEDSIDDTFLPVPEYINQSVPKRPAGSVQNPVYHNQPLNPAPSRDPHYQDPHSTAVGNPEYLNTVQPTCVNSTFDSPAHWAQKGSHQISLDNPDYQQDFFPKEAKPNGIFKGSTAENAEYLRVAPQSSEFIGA
Ba/F3-FL-EGFR-L858R, sequence (P00533 whole entry L858R): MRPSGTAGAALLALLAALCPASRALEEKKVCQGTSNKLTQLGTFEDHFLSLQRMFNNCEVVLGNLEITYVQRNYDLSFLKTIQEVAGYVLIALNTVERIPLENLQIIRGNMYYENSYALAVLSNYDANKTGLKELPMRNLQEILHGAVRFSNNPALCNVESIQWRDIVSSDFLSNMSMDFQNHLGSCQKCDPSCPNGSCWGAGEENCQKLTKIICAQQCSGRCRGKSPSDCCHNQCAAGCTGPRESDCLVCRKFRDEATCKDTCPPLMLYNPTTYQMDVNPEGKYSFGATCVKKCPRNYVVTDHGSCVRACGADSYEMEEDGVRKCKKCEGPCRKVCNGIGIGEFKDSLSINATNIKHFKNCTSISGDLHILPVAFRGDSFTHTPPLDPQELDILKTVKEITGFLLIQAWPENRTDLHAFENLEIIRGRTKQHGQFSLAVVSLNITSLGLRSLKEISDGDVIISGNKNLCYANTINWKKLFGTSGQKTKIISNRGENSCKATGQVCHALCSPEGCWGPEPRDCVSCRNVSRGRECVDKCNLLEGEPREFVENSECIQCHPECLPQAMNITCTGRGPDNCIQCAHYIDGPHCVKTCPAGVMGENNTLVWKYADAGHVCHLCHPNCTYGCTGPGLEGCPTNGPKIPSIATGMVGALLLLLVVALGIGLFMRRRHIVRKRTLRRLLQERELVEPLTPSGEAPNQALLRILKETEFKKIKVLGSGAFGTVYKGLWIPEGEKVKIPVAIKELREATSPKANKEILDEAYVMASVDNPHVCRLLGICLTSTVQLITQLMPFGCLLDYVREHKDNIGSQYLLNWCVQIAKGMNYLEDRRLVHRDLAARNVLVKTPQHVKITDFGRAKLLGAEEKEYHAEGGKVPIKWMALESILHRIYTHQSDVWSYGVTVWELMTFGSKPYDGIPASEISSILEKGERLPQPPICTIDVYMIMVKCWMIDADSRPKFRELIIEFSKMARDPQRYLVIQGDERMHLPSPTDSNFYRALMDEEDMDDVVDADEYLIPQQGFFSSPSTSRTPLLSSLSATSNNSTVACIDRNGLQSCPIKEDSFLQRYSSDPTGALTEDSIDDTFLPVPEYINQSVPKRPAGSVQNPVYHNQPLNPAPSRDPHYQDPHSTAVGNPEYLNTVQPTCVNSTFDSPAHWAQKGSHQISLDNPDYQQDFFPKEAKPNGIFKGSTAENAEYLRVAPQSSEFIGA
EGFR (L858R/C797S), sequence (P00533 25-1210 C797S/L858R): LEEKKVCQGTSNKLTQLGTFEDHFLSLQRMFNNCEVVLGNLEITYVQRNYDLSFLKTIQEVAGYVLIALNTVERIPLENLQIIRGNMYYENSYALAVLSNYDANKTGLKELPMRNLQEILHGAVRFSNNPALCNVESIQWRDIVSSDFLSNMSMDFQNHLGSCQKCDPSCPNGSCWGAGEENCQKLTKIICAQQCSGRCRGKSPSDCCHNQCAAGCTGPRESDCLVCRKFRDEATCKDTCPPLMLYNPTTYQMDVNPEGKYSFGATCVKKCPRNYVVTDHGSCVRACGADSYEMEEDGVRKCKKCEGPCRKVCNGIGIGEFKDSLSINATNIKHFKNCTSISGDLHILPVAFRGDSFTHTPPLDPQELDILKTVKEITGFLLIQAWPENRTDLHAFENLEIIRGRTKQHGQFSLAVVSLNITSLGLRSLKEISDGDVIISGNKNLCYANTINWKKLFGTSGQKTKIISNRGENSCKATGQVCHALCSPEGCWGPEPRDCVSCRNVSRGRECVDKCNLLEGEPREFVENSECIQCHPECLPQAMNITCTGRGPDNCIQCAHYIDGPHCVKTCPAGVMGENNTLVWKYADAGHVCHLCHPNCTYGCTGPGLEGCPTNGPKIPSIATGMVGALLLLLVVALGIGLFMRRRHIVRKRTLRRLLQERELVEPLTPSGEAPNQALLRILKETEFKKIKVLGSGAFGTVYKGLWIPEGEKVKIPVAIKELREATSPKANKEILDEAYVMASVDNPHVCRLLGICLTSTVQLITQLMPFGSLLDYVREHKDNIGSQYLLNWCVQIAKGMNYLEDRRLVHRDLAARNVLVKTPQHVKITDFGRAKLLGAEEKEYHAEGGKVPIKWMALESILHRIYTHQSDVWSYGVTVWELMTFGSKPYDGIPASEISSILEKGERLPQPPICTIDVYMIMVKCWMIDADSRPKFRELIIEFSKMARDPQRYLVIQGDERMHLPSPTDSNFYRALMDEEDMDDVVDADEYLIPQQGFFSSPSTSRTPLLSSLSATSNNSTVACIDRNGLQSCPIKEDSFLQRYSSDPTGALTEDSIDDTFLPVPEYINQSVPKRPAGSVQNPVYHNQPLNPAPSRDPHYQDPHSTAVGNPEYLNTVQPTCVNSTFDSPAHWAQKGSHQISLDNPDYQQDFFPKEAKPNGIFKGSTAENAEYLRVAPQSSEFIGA

Row | Compound | Mouse Clint/(mL/min/kg) [1] [mL/min/kg] | IC50 (EGFR (L858R)) [nM] | GI50 [2] [nM] | GI50 (Ba/F3-FL-EGFR-L858R) [nM] | IC50 (EGFR (L858R/C797S)) [nM] | IC50 [3] [nM] | IC50 (EGFR (wild-type)) [nM] | Human Clint/(mL/min/kg) [4] [mL/min/kg] | IC50 (EGFR (L858R/T790M/C797S)) [nM] | GI50 (Ba/F3-FL-EGFR) [nM] | GI50 [5] [nM] | CLint scaled at 1 μM [1] [mL/min/kg] | IC50 ([3]; 72 h) [nM] | CLint scaled at 1 μM [4] [mL/min/kg]
1 | CC(C)c1ccc(N2CC(CS(C)(=O)=O)C2)c2cnc(Nc3ccnc(-c4cnn(S(=O)(=O)C5CC5)c4)n3)cc12 [Compound H1] | 174 | 1.6 | 3.1 | 5.9 | 1.5 | 10 | 3.9 | <8.6 | 0.4 | 101 | 16 | – | – | –
2 | CC(C)c1ccc(N2CC(CS(C)(=O)=O)C2)c2cnc(Nc3ccnc(-c4cnn(S(=O)(=O)N(C)C)c4)n3)cc12 [Compound H19] | – | 2.9 | 36 | 64 | 4.6 | – | 7.4 | – | 0.4 | 559 | 123 | 61.8 | 57 | 17.2
3 | CC(C)c1ccc(N2CC(CS(C)(=O)=O)C2)c2cnc(Nc3ccnc(-c4cnn(S(C)(=O)=O)c4)n3)cc12 [Compound H7] | – | – | 11 | 13 | 0.77 | – | 2.4 | – | 0.14 | 365 | 25 | 151 | 12 | 21.3

Second part, the compound after the results:

Row | Mouse Clint/(mL/min/kg) [1] [mL/min/kg] | IC50 (EGFR (L858R)) [nM] | GI50 [2] [nM] | GI50 (Ba/F3-FL-EGFR-L858R) [nM] | IC50 (EGFR (L858R/C797S)) [nM] | IC50 [3] [nM] | IC50 (EGFR (wild-type)) [nM] | Human Clint/(mL/min/kg) [4] [mL/min/kg] | IC50 (EGFR (L858R/T790M/C797S)) [nM] | GI50 (Ba/F3-FL-EGFR) [nM] | GI50 [5] [nM] | CLint scaled at 1 μM [1] [mL/min/kg] | IC50 ([3]; 72 h) [nM] | CLint scaled at 1 μM [4] [mL/min/kg] | Compound
4 | – | 3.5 | 48 | 111 | 4.8 | – | 18.1 | – | 0.1 | 2340 | 47 | 230 | 200 | < 8.6 | CC(C)c1ccc(N2CC(NS(C)(=O)=O)C2)c2cnc(Nc3ccnc(N4CCC(O)C(F)(F)C4)n3)cc12 (stereo not drawn) [Compound P30]
5 | – | 1.9 | 38.6 | 76 | 2.3 | – | 8.4 | – | 0.06 | 1510 | 36 | 396 | 205 | 13.6 | CC(C)c1ccc(N2CC(NS(C)(=O)=O)C2)c2cnc(Nc3ccnc(N4CCC(O)C(F)C4)n3)cc12 (stereo not drawn) [Compound P21]
